Data set [1] deals with Nakaseomyces glabratus. Put plainly: Upregulation of TSA1 gene expression in Candida glabrata 0161 incubated for 8 hrs by qRT-PCR analysis. Format: functional.
Data set [2] has as its system Cryptococcus neoformans. Put plainly: Antifungal activity against Cryptococcus neoformans H99 infected in cryptococcosis female ICR mouse model assessed as reduction in vacuolation in brain at 5 mg/kg, ip pre-infected with fungi for 3 hrs followed by compound administration and measured after 5 days by H and E staining based analysis. As to conditions: time 5.0 day. Format: functional, organism-based.

Data set [3] has as its system Cryptococcus neoformans. Put plainly: Upregulation of TRX1 gene expression in Cryptococcus neoformans H99 at 4 microg/ml incubated for 8 hrs by qRT-PCR analysis. Format: functional. As to conditions: dose 4.0 µg/ml.
Data set [4] has as its system Cryptococcus neoformans. Put plainly: Induction of morphological changes in Cryptococcus neoformans H99 assessed as cell wall damage at 4 microg/ml incubated for 8 hrs by transmission electron microscopic analysis. It is filed as functional, organism-based. The note with it: dose 4.0 µg/ml.
Data set [5] concerns Nakaseomyces glabratus. Put plainly: Antifungal activity against Candida glabrata 0161 assessed as inhibition of fungal growth incubated for 48 to 72 hrs by microplate reader analysis. Format: functional. As to conditions: time 48-72 hrs.
Data set [6] concerns Candida albicans. Put plainly: Antifungal activity against Candida albicans 9296 assessed as inhibition of fungal growth incubated for 48 to 72 hrs by microplate reader analysis. It is filed as functional, organism-based. As to conditions: time 48-72 hrs.
For data set [7], the system named is Cryptococcus neoformans. Put plainly: Antifungal activity against Cryptococcus neoformans H99 assessed as inhibition of fungal growth at 4 microg/ml incubated for 48 hrs by spot-plating assay. Format: functional, organism-based. The note with it: dose 4.0 µg/ml.
Data set [8] has as its system Nakaseomyces glabratus. Put plainly: Inhibition of matured biofilm in Candida glabrata 0161 at 2 to 32 microg/ml incubated for 24 hrs by XTT reagent based assay. Format: functional, organism-based. As to conditions: dose 2-32 µg/ml.
Data set [9] has as its system Candida albicans. Put plainly: Antifungal activity against Candida albicans 103 assessed as inhibition of fungal growth incubated for 48 to 72 hrs by microplate reader analysis. It is filed as functional, organism-based. The note with it: time 48-72 hrs.
For data set [10], the system named is Nakaseomyces glabratus. Put plainly: Antifungal activity against Candida glabrata 0161 assessed as inhibition of fungal growth in presence of Fe(III) ion. It is filed as functional, organism-based.
Data set [11] can be described thus: Half-life in male ICR mouse at 20 mg/kg, po measured after 24 hrs by LC-MS/MS analysis. Format: ADME, organism-based. The note with it: in vivo.
Data set [12] relates to Cryptococcus neoformans. Put plainly: Antifungal activity against Cryptococcus neoformans H99 infected in cryptococcosis female ICR mouse model assessed as intact cellular structures in brain cortex at 20 mg/kg, ip pre-infected with fungi for 3 hrs followed by compound administration and measured after 5 days by H and E staining based analysis. Format: functional, organism-based. As to conditions: time 5.0 day.

The subject of data set [13] is Nakaseomyces glabratus. Put plainly: Upregulation of TRX1 gene expression in Candida glabrata 0161 incubated for 8 hrs by qRT-PCR analysis. Format: functional.
Data set [14] relates to Cryptococcus neoformans. Put plainly: Antifungal activity against Cryptococcus neoformans H99 infected in cryptococcosis female ICR mouse model assessed as reduction in fungal burden in brain at 20 mg/kg, po pre-infected with fungi for 3 hrs followed by compound administration and measured after 5 days. It is filed as functional, organism-based. As to conditions: time 5.0 day.

Data set [15] has as its system Cryptococcus neoformans. Put plainly: Fungicidal activity against Cryptococcus neoformans H99 incubated for 72 hrs by time-kill kinetics analysis. Format: functional.
For data set [16], the system named is Cryptococcus neoformans. Put plainly: Inhibition of capsule formation in Cryptococcus neoformans H99 at 8 microg/ml incubated for 24 hrs by light microscopic analysis. Format: functional.
Data set [17] concerns Cryptococcus neoformans. Put plainly: Antifungal activity against Cryptococcus neoformans H99 infected in cryptococcosis female ICR mouse model assessed as dense arrangement of neuronal cells at 20 mg/kg, ip pre-infected with fungi for 3 hrs followed by compound administration and measured after 5 days by H and E staining based analysis. Format: functional, organism-based. The note with it: time 5.0 day.

The subject of data set [18] is Cryptococcus neoformans. Put plainly: Induction of morphological changes in Cryptococcus neoformans H99 assessed as cell membrane damage by measuring plasmolysis at 4 microg/ml incubated for 8 hrs by transmission electron microscopic analysis. Format: functional, organism-based. The note with it: dose 4.0 µg/ml.
Data set [19] deals with Cryptococcus neoformans. Put plainly: Induction of morphological changes in Cryptococcus neoformans H99 assessed as mitochondrial lysis at 4 microg/ml incubated for 8 hrs by transmission electron microscopic analysis. It is filed as functional, organism-based. As to conditions: dose 4.0 µg/ml.

In brackets after ≈: the same amount, converted by molar mass. Activity calls are given as the source filed them. The calls are words filed in the database; no cut-off is given here.

For the compound `Nc1cc(=O)n(C(=S)Nc2ccc(C3CCCCC3)cc2)[nH]1`, the outcome in the data set on Nakaseomyces glabratus [1], with Cryptococcus neoformans [3], in the data set on Candida albicans [6], in the data set with Candida albicans [9], with Cryptococcus neoformans [12] and in the data set on Nakaseomyces glabratus [13] was Active. For the same compound, the outcome in the data set with Cryptococcus neoformans [14], in the data set with Cryptococcus neoformans [17], in the data set with Cryptococcus neoformans [18] and in the data set with Cryptococcus neoformans [19] was Active. The Activity result was “Not active; Slight Vacuolation Observed” with Cryptococcus neoformans [2] and “Moderate_effect” with Cryptococcus neoformans [7]. Moreover, the result in the data set with Cryptococcus neoformans [4] and in the data set on Nakaseomyces glabratus [10] was inactive. In the data set on Nakaseomyces glabratus [5], the MIC80 is 0.38 nM (≈ 0.12 ng/mL). For the same compound, the inhibition entry in the data set with Nakaseomyces glabratus [8] is “Moderate_effect”. The compound also had a half-life in data set [11] of 1.46 h. Moreover, the MFC with Cryptococcus neoformans [15] is 16 µg/mL (≈ 50.6 µM). In the data set with Cryptococcus neoformans [16], the inhibition at 8 µg/mL was determined as 100%.

(Values after ChEMBL document CHEMBL6109146, “Discovery of New Pyrazolone Carbothioamide Derivatives as Potent Antifungal Agents for the Treatment of Candidiasis and Cryptococcosis” (J Med Chem, 2025).)
